Consider 5 compounds from PMC7655067, “Crystal structure-guided design of berberine-based novel chitinase inhibitors” (Journal of Enzyme Inhibition and Medicinal Chemistry, 2020).

Where a name gives a salt, the structure may show the parent alone. Read-outs that look alike come from different tables or passages of the source.

The target in data set [1] is T1, SmChiB (Serratia marcescens, UniProt P11797).
T1 construct: made in house; host or cells: Escherichia coli BL21 (DE3)
T1 sequence (P11797 42-499): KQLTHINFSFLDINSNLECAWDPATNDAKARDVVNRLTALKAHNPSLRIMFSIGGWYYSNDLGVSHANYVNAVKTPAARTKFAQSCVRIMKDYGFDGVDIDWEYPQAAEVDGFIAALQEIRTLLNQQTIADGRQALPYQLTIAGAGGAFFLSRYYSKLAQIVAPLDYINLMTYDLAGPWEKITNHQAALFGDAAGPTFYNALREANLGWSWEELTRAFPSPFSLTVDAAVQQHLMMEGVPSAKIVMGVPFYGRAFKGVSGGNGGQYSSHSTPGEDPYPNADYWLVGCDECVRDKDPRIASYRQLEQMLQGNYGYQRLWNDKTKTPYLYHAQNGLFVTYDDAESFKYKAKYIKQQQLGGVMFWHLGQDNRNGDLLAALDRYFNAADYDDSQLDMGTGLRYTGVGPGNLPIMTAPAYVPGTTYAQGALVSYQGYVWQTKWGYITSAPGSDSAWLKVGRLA
Description: Tryptophan fluorescence quenching, Kd by modified Stern-Volmer equation. The class given is binding. Here is the method: (§1) Tryptophan fluorescence (295 nm excitation) was measured at 25 °C from 300 to 400 nm with a Varioskan Flash microplate reader using excitation and emission band passes of 5 nm. Fluorescence quenching experiments were performed in a 200 μL mixture containing 1 μM protein in the buffer (20 mM sodium phosphate, pH 6.0, for SmChiB, OfChtI and HsCht; 20 mM sodium citrate, pH 5.2, for hAMCase), and by the successive addition of aliquots of compounds stock solution. Since the crystal structure confirmed that berberine binding to SmChiB in a 1:1 ratio, the dissociation constant Kd were then determined using the modified Stern-Volmer equation[35]^,[36]. […]

Data set [2] concerns the target T2, OfChtI (Ostrinia furnacalis, UniProt Q2V6H4). The description is as above. The class given is binding. Here is the method:
as §1

The target of data set [3] is T3, HsCht (Homo sapiens, UniProt Q13231).
T3 construct: including the catalytic domains of OfChtI from O. furnacalis, human HsCht and human hAMCase; made in house; host or cells: Pichia pastoris GS115
Set-up: method as in PMID 30135205. The settings on record: cited from earlier work.

The target of data set [4] is T4, hAMCase (Homo sapiens, UniProt Q9BZP6).
T4 construct: including the catalytic domains of OfChtI from O. furnacalis, human HsCht and human hAMCase; made in house; host or cells: Pichia pastoris GS115
Description: Tryptophan fluorescence quenching, Kd by modified Stern-Volmer equation. The class given is binding. To be noted: pH 5.2. Here is the method: (§2) Fluorescence quenching experiments were performed in a 200 μL mixture containing 1 μM protein in the buffer (20 mM sodium phosphate, pH 6.0, for SmChiB, OfChtI and HsCht; 20 mM sodium citrate, pH 5.2, for hAMCase), and by the successive addition of aliquots of compounds stock solution.

The target in data set [5] is T3, HsCht. Described as above. The class given is binding. The settings on record: pH 6.0. Here is the method:
as §2

Data set [6] deals with T4, hAMCase. Set-up: method as in PMID 30135205. To be noted: cited from earlier work.
Data set [7] has as its target T2, OfChtI. More on the design: method as in PMID 30135205. To be noted: cited from earlier work.
Data set [8] concerns the target T1, SmChiB. As to the kind of experiment: biochemical. The class given is biochemical. Here is the method:
(§3) ChiB from S. marcescens was expressed in Escherichia coli BL21 (DE3). The other GH18 chitinases including the catalytic domains of OfChtI from O. furnacalis, human HsCht and human hAMCase were expressed in P. pastoris GS115. All the proteins were purified by immobilised metal affinity chromatography (IMAC) as described previously. The purities of the target proteins were analysed by SDS-PAGE followed by Coomassie Brilliant Blue R-250 staining.
(§4) The activity of GH18 chitinases were determined using MU-(GlcNAc)2 as a substrate. The reaction mixtures used for determining the inhibitor activity of compounds consisted of 100 μL of 20 nM enzyme, 4 μM MU-(GlcNAc)2, 1 or 10 μM inhibitors and 2% DMSO in the buffer (20 mM sodium phosphate, pH 6.0, for SmChiB, OfChtI and HsCht; 20 mM sodium citrate, pH 5.2, for hAMCase). The reaction in the absence of compounds was used as a positive control. After incubating at 30 °C for 25 min, an equal volume of 0.5 M sodium carbonate was added to the reaction mixtures to terminate the reaction, and the fluorescence produced by the released MU was quantified using a Varioskan Flash microplate reader (Thermo Fisher Scientific, Waltham, MA), with excitation and emission wavelengths of 360 and 450 nm, respectively. Experiments were performed in triplicate. […] The Ki values and types of inhibition were determined by linear fitting of the data in Dixon plots.

Data set [9] deals with T4, hAMCase. As to the kind of experiment: Inhibitory activity assay with MU-(GlcNAc)2, Ki by Dixon plots. The class given is biochemical. The settings on record: pH 5.2. Here is the method: as §3, §4
Data set [10] addresses T2, OfChtI. Described as above. The class given is biochemical. To be noted: for Ki: pH 6.0, Dixon plots. Here is the method:
as §3, §4

Data set [11] deals with T3, HsCht. Described as above. The class given is biochemical. To be noted: pH 6.0. Here is the method:
as §3, §4

[12] abbreviates: SmChiB, tryptophan fluorescence quenching, pH 6.0, read-out: Kd.
The mark [13] stands for this setting: SmChiB, pH 6.0, Dixon plots, read-out: Ki.

T2 sequence (Q2V6H4 entry or part of it): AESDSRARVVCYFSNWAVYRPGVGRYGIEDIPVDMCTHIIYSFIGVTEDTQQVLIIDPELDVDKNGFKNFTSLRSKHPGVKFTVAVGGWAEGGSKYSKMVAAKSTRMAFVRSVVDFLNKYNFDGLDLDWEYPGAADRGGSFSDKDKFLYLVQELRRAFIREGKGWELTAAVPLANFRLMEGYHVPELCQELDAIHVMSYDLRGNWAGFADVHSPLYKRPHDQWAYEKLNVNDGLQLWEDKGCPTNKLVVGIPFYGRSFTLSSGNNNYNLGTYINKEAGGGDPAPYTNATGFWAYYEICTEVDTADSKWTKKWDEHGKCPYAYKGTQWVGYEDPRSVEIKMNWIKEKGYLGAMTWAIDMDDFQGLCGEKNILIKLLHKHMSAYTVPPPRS
T4 sequence (Q9BZP6 22-390 limits assumed): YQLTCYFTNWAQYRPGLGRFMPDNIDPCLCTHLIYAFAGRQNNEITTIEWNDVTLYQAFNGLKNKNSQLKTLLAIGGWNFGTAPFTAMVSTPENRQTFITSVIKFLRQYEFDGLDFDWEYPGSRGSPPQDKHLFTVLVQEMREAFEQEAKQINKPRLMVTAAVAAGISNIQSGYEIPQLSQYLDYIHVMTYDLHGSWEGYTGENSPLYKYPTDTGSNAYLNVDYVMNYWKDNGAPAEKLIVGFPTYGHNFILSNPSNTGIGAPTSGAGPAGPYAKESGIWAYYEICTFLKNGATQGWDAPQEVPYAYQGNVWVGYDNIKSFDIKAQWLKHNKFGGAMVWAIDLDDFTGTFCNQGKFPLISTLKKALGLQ
T3 sequence (Q13231 22-388 limits assumed): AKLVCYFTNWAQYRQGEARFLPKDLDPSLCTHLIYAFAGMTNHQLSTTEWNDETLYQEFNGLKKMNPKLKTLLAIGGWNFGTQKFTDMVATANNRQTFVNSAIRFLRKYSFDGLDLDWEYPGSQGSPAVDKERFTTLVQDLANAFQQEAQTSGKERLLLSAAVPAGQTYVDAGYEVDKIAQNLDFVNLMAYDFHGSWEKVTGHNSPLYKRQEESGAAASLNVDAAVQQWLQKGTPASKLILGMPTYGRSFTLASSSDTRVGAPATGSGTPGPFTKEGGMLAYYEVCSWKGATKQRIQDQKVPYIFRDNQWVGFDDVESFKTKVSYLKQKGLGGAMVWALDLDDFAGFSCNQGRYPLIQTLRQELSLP

The Kd is the equilibrium constant for the complex coming apart. By Ki is commonly meant a measure of affinity in units of concentration, obtained from inhibition or displacement. Turning to `COc1ccc2cc3[n+](cc2c1OC)CCc1cc2c(cc1-3)OCO2` [Berberine, berberine], the Kd in [1] is 12 µM; in data set [2], 20.6 µM; in data set [4] it was 58 µM; in data set [5], 21.9 µM. Also, the Ki was 19 µM in [3], 65 µM in data set [6], 23 µM in data set [7] and 11.8 µM in data set [8]. In addition, the type of inhibition entry in data set [3] is on record as “competitive inhibitor”; in [6], “competitive inhibitor”; in [7], “competitive inhibitor”; in data set [8] (SmChiB, Dixon plots), “competitive inhibitor”.
With `COC(=O)CCC(=O)Oc1c(OC)ccc2cc3[n+](cc12)CCc1cc2c(cc1-3)OCO2` [4a], the Kd in data set [1] (setting [12]) worked out at 1.12 µM. The Ki turned out to be 7.43 µM in data set [9], 6.43 µM in [10], 8.23 µM in data set [11] and 0.68 µM in data set [8] (setting [13]).
In general, melting point refers to the temperature of the solid-liquid transition. Take `COC(=O)CCC(=O)Oc1c(OC)ccc2cc3[n+](cc12)CCc1cc2c(cc1-3)OCO2` (as salt: chloride) [4a]: the melting point is 192 °C (dec.).
In the case of `COc1ccc2cc3[n+](cc2c1OC(=O)c1ccccc1)CCc1cc2c(cc1-3)OCO2` [4b], in data set [1] (setting [12]), the Kd stood at 2.99 µM. For the same compound, the Ki is 4.62 µM in [9], 7.28 µM in [10], 11.4 µM in data set [11] and 2.36 µM in data set [8] (setting [13]).
For the compound `COc1ccc2cc3[n+](cc2c1OC(=O)c1ccc(F)nc1)CCc1cc2c(cc1-3)OCO2` [4c], the Kd in [1] (setting [12]) was 0.19 µM; in [2] (OfChtI, tryptophan fluorescence quenching, pH 6.0, read-out: Kd), 2.58 µM. Further, the “inhibitory activity increase compared to berberine” value in data set [10] (from Ki values) is recorded as 7.5 fold. The Ki was 3.03 µM in [10] and 0.15 µM in data set [8] (setting [13]).
